Legend:
[1] = amide bond; 14-membered ring; HATU/DIEA; DMF; 3 steps
[2] = target: CFTR (Homo sapiens, UniProt P13569); experiment: standard Ussing Chamber Assay for CFTR potentiator activity; type: cell-based
Description: tert-Butyl N-[(6R,12R)-6-benzyloxy-12-methyl-6,15-bis(trifluoromethyl)-13,19-dioxa-3,4,18-triazatricyclo[12.3.1.12,5]nonadeca-1(18),2,4,14,16-pentaen-17-yl]-N-tert-butoxycarbonyl-carbamate (8.6 g, 11.77 mmol) was dissolved in ethanol (172 mL) then the flask was cycled 3 times between vacuum/nitrogen. Treated the mixture with 10% Pd/C (50% water wet, 1.8 g of 5% w/w, 0.8457 mmol) then cycled 3 times between vacuum/nitrogen and 3 times between vacuum/hydrogen and then stirred vigorously under hydrogen (balloon) at room temperature for 18 hours. The mixture was cycled 3 times between vacuum/nitrogen, filtered over Celite, washing with ethanol, and then the filtrate was evaporated to give 7.3 g of tert-butyl N-tert-butoxycarbonyl-N-[(6R,12R)-6-hydroxy-12-methyl-6,15-bis(trifluoromethyl)-13,19-dioxa-3,4,18-triazatricyclo[12.3.1.12,5]nonadeca-1(18),2,4,14,16-pentaen-17-yl]carbamate an off-white solid. 1H NMR and MS confirmed the expected product. CFTR modulatory activity was confirmed using a standard Ussing Chamber Assay for CFTR potentiator activity.

[3] = target: CFTR-mediated chloride transport in human intestinal epithelial enteroid cells (Homo sapiens, UniProt P13569); experiment: Membrane potential dye, Enteroid Assay B; type: cell-based; conditions: for Ent. B Max Activity (%): % of chloride transport of triple combination control (1 μM (14S)-8-[3-(2-{Dispiro[2.0.2.1]heptan-7-yl}ethoxy)-1H-pyrazol-1-yl]-12,12-dimethyl-... macrocycle, 3 μM tezacaftor, 300 nM acute ivacaftor); for EC50: enteroid cells, 18-24 hours incubation, acute 10 μM forskolin and 300 nM ivacaftor, read-out: Ent. B EC50
Chain of CFTR-mediated chloride transport in human intestinal epithelial enteroid cells (P13569 with tags, fused parts or gaps DEL508-508): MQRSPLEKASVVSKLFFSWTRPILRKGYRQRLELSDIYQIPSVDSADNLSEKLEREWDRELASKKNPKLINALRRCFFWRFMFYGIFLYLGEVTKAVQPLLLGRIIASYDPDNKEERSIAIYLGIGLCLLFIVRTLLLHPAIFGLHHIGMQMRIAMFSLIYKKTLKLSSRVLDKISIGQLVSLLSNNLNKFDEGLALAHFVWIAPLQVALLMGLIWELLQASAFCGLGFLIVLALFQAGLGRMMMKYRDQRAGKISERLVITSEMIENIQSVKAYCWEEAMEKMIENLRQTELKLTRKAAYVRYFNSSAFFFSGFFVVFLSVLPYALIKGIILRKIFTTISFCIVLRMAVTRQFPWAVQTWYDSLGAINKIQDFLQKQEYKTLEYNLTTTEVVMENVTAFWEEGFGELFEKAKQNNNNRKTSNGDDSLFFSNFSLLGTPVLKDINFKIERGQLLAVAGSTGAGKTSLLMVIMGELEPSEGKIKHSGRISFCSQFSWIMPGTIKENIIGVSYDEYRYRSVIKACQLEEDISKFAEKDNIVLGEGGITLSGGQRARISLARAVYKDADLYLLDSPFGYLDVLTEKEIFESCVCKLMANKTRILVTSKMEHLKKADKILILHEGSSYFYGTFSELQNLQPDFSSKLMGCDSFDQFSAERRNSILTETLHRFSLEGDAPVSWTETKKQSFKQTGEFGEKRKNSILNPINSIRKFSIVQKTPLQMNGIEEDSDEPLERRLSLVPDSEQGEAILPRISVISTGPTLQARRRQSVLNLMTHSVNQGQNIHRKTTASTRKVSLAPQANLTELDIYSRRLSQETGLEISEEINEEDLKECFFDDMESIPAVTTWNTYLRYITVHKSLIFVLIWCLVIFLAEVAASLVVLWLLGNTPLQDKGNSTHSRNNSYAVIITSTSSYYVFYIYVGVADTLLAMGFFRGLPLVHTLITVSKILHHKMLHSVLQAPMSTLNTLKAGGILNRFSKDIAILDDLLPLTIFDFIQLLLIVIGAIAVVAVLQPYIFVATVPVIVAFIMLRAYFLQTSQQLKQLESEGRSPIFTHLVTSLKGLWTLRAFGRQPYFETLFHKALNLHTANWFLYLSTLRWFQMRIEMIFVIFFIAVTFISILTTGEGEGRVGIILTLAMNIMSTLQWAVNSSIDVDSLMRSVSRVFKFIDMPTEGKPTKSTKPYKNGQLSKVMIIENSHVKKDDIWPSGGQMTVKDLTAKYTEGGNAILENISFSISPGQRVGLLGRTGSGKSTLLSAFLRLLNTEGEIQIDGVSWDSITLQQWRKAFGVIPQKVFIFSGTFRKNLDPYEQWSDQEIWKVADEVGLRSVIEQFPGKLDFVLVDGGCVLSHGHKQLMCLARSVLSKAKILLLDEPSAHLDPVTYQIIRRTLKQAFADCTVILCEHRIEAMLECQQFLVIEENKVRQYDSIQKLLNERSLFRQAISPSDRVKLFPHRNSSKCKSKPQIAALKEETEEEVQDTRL
Description: Base medium (ADF+++) consisted of Advanced DMEM/Ham's F12, 2 mM Glutamax, 10 mM HEPES, […] penicillin/streptomycin.
Intestinal enteroid maintenance medium (IEMM) consisted of ADF+++, 1×B27 supplement, 1×N2 supplement, 1.25 mM N-acetyl cysteine, 10 mM Nicotinamide, 50 ng/mL hEGF, 10 nM Gastrin, 1 μg/mL hR-spondin-1, 100 ng/mL hNoggin, TGF-b type 1 inhibitor A-83-01, 100 μg/mL Primocin, 10 μM P38 MAPK inhibitor SB202190.
Bath 1 Buffer consisted of 1 mM MgCl2, 160 mM NaCl, 4.5 mM KCl, 10 mM HEPES, 10 mM Glucose, 2 mM CaCl2.
Chloride Free Buffer consisted of 1 mM Magnesium Gluconate, 2 mM Calcium Gluconate, 4.5 mM Potassium Gluconate, 160 mM Sodium Gluconate, 10 mM HEPES, 10 mM Glucose.
Bath1 Dye Solution consisted of Bath 1 Buffer, 0.04% Pluronic F127, 20 μM Methyl Oxonol, 30 μM CaCCinh-A01, 30 μM Chicago Sky Blue.
Chloride Free Dye Solution consisted of Chloride Free Buffer, 0.04% Pluronic F127, 20 μM Methyl Oxonol, 30 μM CaCCinh-A01, 30 μM Chicago Sky Blue.
Chloride Free Dye Stimulation Solution consisted of Chloride Free Dye Solution, 10 μM forskolin, 100 μM IBMX, and 300 nM Compound III.
Human intestinal epithelial enteroid cells were obtained from the Hubrecht Institute for Developmental Biology and Stem Cell Research, Utrecht, The Netherlands and expanded in T-Flasks as previously described (Dekkers J F, Wiegerinck C L, de Jonge H R, Bronsveld I, Janssens H M, de Winter-de Groot K M, Brandsma A M, de Jong N W M, Bijvelds M J C, Scholte B J, Nieuwenhuis E E S, van den Brink S, Clevers H, van der Ent C K, Middendorp S and M Beekman J M. A functional CFTR assay using primary cystic fibrosis intestinal organoids. Nat Med. 2013 July; 19(7):939-45).
c. Enteroid Cell Harvesting and Seeding
Cells were recovered in cell recovery solution, collected by centrifugation at 650 rpm for 5 minutes at 4° C., resuspended in TrypLE and incubated for 5 minutes at 37° C. Cells were then collected by centrifugation at 650 rpm for 5 minutes at 4° C. and resuspended in IEMM containing 10 μM ROCK inhibitor (RI). The cell suspension was passed through a 40 μm cell strainer and resuspended at 1×10^6 cells/mL in IEMM containing 10 μM RI. Cells were seeded at 5000 cells/well into multi-well plates and incubated for overnight at 37° C., 95% humidity and 5% CO2 prior to assay.
e. Membrane Potential Dye, Enteroid Assay B
Enteroid cells were incubated with test compound in IEMM for 18-24 hours at 37° C., 95% humidity and 5% CO2. […] Briefly, cells were washed 5 times in Bath 1 Buffer. Bath 1 Dye Solution was added and the cells were incubated for 25 minutes at room temperature. Following dye incubation, cells were washed 3 times in Chloride Free Dye Solution. Chloride transport was initiated by addition of Chloride Free Dye Stimulation Solution and the fluorescence signal was read for 15 minutes. […] Chloride transport was then expressed as a percentage of the chloride transport following treatment with 1 μM (14S)-8-[3-(2-{Dispiro[2.0.2.1]heptan-7-yl}ethoxy)-1H-pyrazol-1-yl]-12,12-dimethyl-2λ^6-thia-3,9,11,18,23-pentaazatetracyclo[17.3.1.111,14.05,10]tetracosa-1(22),5,7,9,19(23),20-hexaene-2,2,4-trione, 3 μM (R)-1-(2,2-difluorobenzo[d][1,3]dioxol-5-yl)-N-(1-(2,3-dihydroxypropyl)-6-fluoro-2-(1-hydroxy-2-methylpropan-2-yl)-1H-indol-5-yl)cyclopropanecarboxamide and 300 nM acute N-[2,4-bis(1,1-dimethylethyl)-5-hydroxyphenyl]-1,4-dihydro-4-oxoquinoline-3-carboxamide triple combination control (% Activity).

Chain of CFTR (P13569 whole entry, species assumed): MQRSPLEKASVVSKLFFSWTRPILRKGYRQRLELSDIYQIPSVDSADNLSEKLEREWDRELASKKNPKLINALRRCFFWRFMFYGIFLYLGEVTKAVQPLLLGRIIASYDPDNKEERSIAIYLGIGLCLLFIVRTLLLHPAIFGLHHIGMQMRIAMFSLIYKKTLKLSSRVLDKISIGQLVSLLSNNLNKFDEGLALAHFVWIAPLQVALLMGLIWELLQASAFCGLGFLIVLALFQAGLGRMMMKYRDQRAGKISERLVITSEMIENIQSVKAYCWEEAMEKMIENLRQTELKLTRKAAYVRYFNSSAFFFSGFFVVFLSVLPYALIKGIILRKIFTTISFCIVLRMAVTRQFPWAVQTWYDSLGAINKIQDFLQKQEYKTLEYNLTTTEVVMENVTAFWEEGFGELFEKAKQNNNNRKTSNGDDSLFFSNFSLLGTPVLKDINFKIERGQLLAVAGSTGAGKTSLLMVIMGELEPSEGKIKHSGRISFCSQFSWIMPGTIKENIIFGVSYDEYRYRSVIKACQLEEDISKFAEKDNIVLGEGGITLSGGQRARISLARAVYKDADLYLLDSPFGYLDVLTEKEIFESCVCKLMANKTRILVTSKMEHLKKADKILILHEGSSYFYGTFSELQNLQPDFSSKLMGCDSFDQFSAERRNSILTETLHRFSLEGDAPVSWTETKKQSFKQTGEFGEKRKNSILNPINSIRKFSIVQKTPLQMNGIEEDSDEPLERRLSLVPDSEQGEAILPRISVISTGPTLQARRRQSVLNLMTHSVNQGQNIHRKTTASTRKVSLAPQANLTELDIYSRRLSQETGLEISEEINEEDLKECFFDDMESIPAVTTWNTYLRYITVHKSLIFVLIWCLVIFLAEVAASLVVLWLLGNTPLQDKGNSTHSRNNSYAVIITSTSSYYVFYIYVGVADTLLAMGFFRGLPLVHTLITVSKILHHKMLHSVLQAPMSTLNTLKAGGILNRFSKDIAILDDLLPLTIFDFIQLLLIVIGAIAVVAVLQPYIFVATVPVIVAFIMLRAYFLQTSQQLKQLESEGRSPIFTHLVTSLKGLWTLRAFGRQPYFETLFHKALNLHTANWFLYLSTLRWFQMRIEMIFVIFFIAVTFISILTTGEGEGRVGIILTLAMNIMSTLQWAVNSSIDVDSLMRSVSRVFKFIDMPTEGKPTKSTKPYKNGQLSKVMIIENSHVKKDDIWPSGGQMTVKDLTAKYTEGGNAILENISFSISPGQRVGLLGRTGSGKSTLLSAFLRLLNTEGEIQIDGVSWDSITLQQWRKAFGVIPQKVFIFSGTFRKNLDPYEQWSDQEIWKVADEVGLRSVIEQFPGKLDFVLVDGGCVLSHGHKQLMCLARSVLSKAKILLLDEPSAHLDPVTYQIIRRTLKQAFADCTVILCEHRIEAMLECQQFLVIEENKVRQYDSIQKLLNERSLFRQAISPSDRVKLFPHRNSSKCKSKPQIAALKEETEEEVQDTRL

CFTR modulatory activity [2] | Ent. B Max Activity (%) [3] | EC50 [3] [nM] | Compound | ring closure, isolated yield [1] [%]
 |  |  | Cc1cccc(C)c1-c1cc2nc(n1)NS(=O)(=O)c1cccc(c1)NC(=O)c1cc(ccc1Br)O2 | 20
 |  |  | Cc1cccc(C)c1-c1cc2nc(n1)NS(=O)(=O)c1cccc(c1)NC(=O)c1cccc(c1C)O2 | 33
confirmed |  |  | C[C@@H]1CCCCC[C@](O)(C(F)(F)F)C2=NN=C(O2)c2nc(c(C(F)(F)F)cc2N)O1 [(6R,12R)-17-amino-12-methyl-6,15-bis(trifluoromethyl)-13,19-dioxa-3,4,18-triazatricyclo[12.3.1.12,5]nonadeca-1(18),2,4,14,16-pentaen-6-ol] | 
 | ++ (++ is 30-60%) | < 1000 | Cc1cccc(C)c1-c1cc2nc(n1)NS(=O)(=O)c1cccc(c1)OC(Cc1ccccc1)CCO2 (stereo not drawn) [Compound 120] | 
 | +++ (+++ is >60%) | < 1000 | Cc1cccc(C)c1-c1cc2nc(n1)NS(=O)(=O)c1cccc(c1)OC(c1ccccc1)CCO2 (stereo not drawn) [Compound 121] | 
 | + (+ is <30%) | 3000 to 30000 | Cc1cccc(C)c1-c1cc2nc(n1)NS(=O)(=O)c1cccc(c1)OCCCO2 [Compound 122] | 
